Values of other authors in US10753947B2, “Methods for screening voltage-gated proteins” (D.E. Shaw Research, LLC, priority 2012, dated 2020).
Read-outs that look alike come from different tables or passages of the source.

Legend:
Kv1.1 = Kv1.1 (Homo sapiens, UniProt Q09470); settings: Table 4; read-out: IC50 Kv1.1; cited from earlier work
Kv1.5 = Kv1.5 (Homo sapiens, UniProt P22460); settings: Table 4; cited from earlier work
KCa3.1 = KCa3.1 (Homo sapiens, UniProt O15554); settings: Table 4; cited from earlier work
KCa3.1, sequence (O15554 whole entry): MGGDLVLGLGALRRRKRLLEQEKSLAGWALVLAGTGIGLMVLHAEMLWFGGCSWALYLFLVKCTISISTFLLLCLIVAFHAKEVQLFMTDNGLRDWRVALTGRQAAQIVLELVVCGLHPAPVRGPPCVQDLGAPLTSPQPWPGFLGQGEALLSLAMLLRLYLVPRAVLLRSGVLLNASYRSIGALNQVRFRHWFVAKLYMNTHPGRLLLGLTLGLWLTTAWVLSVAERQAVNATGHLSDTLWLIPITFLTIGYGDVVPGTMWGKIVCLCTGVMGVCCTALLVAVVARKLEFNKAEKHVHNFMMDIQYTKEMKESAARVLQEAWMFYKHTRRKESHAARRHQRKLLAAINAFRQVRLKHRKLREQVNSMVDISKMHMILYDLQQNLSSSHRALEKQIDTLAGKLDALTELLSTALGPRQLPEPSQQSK

Nav = settings: Table 4; read-out: IC50 Others: Nav; cited from earlier work
Kv1.2 = Kv1.2 (Homo sapiens, UniProt P16389); settings: Table 4; read-out: IC50 Kv1.2; cited from earlier work
Kv1.2, sequence (P16389 whole entry): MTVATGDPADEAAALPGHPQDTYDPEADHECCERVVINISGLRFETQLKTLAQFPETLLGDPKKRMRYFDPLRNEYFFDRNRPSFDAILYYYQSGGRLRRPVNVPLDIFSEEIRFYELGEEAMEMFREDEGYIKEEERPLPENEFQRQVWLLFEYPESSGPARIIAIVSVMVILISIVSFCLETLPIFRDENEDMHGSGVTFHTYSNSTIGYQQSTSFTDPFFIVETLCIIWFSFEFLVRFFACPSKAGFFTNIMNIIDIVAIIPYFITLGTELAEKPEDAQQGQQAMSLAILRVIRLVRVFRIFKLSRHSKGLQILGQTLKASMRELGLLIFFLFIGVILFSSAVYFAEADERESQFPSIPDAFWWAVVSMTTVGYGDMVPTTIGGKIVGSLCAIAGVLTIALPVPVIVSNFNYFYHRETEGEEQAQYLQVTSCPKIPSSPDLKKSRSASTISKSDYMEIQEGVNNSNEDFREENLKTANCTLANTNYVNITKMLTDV

Kv1.3 = Kv1.3 (Homo sapiens, UniProt P22001); settings: cited from earlier work
Kv1.3, sequence (P22001 whole entry): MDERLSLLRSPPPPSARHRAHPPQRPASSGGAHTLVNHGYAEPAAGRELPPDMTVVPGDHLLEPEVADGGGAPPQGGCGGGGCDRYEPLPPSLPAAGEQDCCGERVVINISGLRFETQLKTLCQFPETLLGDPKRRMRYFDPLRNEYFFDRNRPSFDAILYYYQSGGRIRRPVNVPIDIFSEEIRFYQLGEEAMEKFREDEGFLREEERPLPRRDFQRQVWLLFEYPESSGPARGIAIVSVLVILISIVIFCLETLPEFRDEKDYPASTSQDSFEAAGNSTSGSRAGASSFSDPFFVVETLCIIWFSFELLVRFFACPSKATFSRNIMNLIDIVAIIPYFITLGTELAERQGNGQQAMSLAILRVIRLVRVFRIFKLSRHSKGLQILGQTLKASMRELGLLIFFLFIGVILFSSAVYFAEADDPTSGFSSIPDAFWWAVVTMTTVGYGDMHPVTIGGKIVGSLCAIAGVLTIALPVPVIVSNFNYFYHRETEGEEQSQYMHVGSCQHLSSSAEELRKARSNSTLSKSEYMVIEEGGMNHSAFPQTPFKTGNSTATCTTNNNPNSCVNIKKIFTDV

Kv1.4 = Kv1.4 (Homo sapiens, UniProt P22459); settings: Table 4; read-out: IC50 Others: Kv1.4; cited from earlier work
Kv1.4, sequence (P22459 whole entry): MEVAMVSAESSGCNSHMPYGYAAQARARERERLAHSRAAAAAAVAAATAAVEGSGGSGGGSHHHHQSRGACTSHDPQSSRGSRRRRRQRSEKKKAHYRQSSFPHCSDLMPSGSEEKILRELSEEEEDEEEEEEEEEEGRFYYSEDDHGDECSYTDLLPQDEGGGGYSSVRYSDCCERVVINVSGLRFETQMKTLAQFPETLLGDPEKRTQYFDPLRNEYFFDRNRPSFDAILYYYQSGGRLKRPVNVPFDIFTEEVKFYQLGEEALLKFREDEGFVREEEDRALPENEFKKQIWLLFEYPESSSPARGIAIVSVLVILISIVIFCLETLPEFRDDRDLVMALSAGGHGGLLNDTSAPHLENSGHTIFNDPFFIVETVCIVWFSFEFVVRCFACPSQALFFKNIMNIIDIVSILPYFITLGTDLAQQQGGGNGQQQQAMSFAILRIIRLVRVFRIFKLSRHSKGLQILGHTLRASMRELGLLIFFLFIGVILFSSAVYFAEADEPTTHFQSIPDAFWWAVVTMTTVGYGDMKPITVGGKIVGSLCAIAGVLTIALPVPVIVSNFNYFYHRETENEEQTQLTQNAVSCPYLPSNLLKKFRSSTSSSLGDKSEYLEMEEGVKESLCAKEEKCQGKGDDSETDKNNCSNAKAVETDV

Kv3.2 = biological target: T1, Kv3.2 (Homo sapiens, UniProt Q96PR1); settings: Table 4; read-out: IC50 Others: Kv3.2; cited from earlier work
T1 sequence (Q96PR1 1-638): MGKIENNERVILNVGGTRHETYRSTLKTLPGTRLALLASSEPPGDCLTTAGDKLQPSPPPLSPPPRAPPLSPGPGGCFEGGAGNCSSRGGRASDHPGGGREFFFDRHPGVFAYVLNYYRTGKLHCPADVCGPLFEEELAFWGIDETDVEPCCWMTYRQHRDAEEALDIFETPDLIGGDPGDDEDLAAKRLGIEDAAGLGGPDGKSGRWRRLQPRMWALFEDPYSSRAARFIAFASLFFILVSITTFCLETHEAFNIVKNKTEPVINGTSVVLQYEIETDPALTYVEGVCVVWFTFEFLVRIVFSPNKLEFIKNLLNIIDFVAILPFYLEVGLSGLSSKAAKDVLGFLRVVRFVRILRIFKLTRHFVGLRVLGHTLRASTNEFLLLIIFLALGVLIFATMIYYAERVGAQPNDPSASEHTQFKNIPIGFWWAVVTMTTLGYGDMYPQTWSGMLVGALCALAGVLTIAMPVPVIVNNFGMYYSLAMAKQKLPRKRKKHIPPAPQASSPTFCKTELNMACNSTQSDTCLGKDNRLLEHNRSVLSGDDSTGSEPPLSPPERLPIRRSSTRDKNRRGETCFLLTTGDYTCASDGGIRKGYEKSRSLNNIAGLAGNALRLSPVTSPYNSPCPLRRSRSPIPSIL

[1] = Table 2, modulating Kv1.3 ion conductance, read-out: IC50

Kv1.1, sequence (Q09470 whole entry): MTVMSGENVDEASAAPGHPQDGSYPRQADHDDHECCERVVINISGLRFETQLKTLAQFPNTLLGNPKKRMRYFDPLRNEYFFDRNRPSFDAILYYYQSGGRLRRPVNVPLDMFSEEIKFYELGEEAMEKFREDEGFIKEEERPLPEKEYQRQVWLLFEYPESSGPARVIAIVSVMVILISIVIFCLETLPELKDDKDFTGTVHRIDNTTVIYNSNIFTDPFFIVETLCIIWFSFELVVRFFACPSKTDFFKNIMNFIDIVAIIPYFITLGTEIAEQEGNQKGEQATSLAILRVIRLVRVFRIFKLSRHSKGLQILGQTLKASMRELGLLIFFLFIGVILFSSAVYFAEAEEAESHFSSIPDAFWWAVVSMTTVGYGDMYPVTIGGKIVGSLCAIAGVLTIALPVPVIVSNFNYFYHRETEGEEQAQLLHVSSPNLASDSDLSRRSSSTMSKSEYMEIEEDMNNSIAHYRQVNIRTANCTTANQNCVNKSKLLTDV
Kv1.5, sequence (P22460 whole entry): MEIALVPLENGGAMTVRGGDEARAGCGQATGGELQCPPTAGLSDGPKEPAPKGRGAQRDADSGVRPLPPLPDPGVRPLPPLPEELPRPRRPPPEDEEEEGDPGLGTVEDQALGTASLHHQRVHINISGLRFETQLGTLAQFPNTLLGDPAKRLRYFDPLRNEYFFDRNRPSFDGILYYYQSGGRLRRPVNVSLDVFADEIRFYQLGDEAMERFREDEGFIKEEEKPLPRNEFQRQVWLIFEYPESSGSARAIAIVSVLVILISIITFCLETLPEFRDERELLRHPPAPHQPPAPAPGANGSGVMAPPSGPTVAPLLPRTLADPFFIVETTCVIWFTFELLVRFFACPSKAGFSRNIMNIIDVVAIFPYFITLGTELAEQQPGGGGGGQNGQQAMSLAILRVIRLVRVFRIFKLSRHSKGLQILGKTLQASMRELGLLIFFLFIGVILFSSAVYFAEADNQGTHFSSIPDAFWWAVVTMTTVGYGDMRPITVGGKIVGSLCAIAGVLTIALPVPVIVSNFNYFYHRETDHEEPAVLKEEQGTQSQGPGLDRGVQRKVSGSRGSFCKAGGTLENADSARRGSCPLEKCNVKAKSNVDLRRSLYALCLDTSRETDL

SMILES	IC50 (Kv1.1) [nM]	IC50 (Kv1.5) [nM]	IC50 (KCa3.1) [nM]	IC50 (Nav) [nM]	IC50 (Kv1.2) [nM]	IC50 (Kv1.3; [1]) [nM]	IC50 (Kv1.3; Table 4, read-out: IC50 Kv1.3) [nM]	IC50 (Kv1.4) [nM]	IC50 (Kv3.2) [nM]
CCCCC/N=c1\ccn(Cc2ccccc2)c2ccccc12 [CP-339818]	62000	19000	> 500000	10	14000	150	230		
COc1ccc(CCCN2CCC(COC(c3ccccc3)c3ccccc3)CC2)cc1 [UK-78282]	22000	70	> 30000		2900	200		300	127000
